Test results reported in patent US9980982B2, “HE4 based therapy for malignant disease” (Women & Infants Hospital of Rhode Island, priority 2011, dated 2018).
Oligonucleotides are written 5' to 3', each unit as a sugar letter and its base; * is a phosphorothioate linkage, no mark a phosphodiester; rarer units and linkages stand in square brackets, end groups in braces. Plain capitals give the bases only. Starred links: 1 amine or outer side, 2 acyl side, 3 side chain; linkers in the order of their positions; H or OH if unused. Positions of bridges follow the written chain, without caps; N, C: chain ends. Non-standard residues stand in square brackets, D forms with d. Residues, ends and D or L forms follow the SMILES beside them. Chains are numbered I, II in the order given. Actinocin(9to1) = Cc1c2oc3c(C)ccc(C(=O)[*:1])c3nc-2c(C(=O)[*:2])c(N)c1=O; NMeV = CN[C@H](C(=O)O)C(C)C; d = 2'-deoxy (DNA); Sar = CNCC(=O)O

Tests used:
[1] = system: ovarian cancer (SKOV-3) cells xenograft; assay: Antisense HE4 oligos in ovarian cancer (SKOV-3) xenografted animals; format: in vivo, nude mice; details: 7 mg/kg bwt, IP, 5 days/week; for effect on tumor progression / tumor burden: within 28 days, versus scrambled, sense oligos and vehicle
Description: Left: Effect of treatment of antisense HE4 oligos (“HE4 antisense 1” corresponds to SEQ ID NO:2 and “HE4 antisense 2” corresponds to SEQ ID NO:4; red and violet, respectively), sense HE4 oligos (green), vehicle, and scrambled sequences (7 mg/kg bwt, IP) 5 days/week on the tumor size in animals xenografted with ovarian cancer (SKOV-3) cells. Right: the weight of the animals treated with oligos progressed as the day progressed, and no toxicity was observed.
HE4 overexpression promoted ovarian cancer burden in animals (FIG. 24), and caused strong chemoresistance against cisplatin in animals (FIG. 26). Thus, a set of antisense oligos were designed to knockdown the expression levels of HE4 in animals xenografted with ovarian cancer (SKOV-3) cells. Treatment at 5 days/week with antisense HE4 phosphorothio oligos suppressed the tumor progression in animals compared to scrambled or sense HE4 oligos and vehicle treated control within 28 days of the treatment.

[2] = system: HE4; assay: HE4 levels in SKOV-3 cell lysates and media by sandwich ELISA; format: cell-based, Human; details: for effect on HE4 levels in SKOV-3: cytotoxic agents, 24 hrs, serum free DMEM, versus untreated controls; for effect on HE4 levels in media or cell-lysate of SKOV-3 cells: growth factors and cytokines, 6 hours
Description: (§1) Various agents were examined by RT-PCR or by a sandwich ELISA. […] HE4 levels in cell lysates and media were evaluated by a sandwich ELISA.
Cells were grown for 24 h in 100 mm cell culture dishes (Corning, New York, N.Y.), supernatant collected and lysates of washed and scraped cells prepared as described previously (Lange T S et al., 2007Chem Biol Drug Design, 70:302-10). Total protein of lysates was quantitated (BioRad protein estimation kit, Hercules, Calif.), and HE4 levels were determined using the HE4 EIA assay (Fujirebio Diagnostics, Malvern, Pa.), a solid-phase, non-competitive immunoassay using two mouse monoclonal antibodies, directed against two epitopes in the C-WFDC domain. Calibration curves were used to measure HE4 concentrations in both cell lysates and culture media allowing for the calculation of production and secretion of HE4 in pmol/g total cellular protein.
FIG. 15 is a bar chart showing that treatment with growth factors and cytokines affect the HE4 levels in ovarian cancer cells. SKOV-3 cells (1 million each) were seeded in 100 mm dishes and incubated overnight. The cells were treated with an array of factors (IL-6, Insulin, TNFa, EGF) and incubated for another 6 hours. The media was collected and cells were lysed using the cell lysis buffer. The HE4 content in the media or in the cell-lysate was examined by a HE4 sandwich ELISA kit.

[3] = system: HE4 overexpressing SKOV-3 clones HE4C1, -C3, -C7; assay: MTS cell viability assay, HE4 overexpressing SKOV-3 clones; format: cell-based, Human; details: 24 h; for viability at 20 µM: Homo sapiens, SK-OV-3, 24 h, 20 μM doxorubicin, untreated = 100%; for response of HE4 overexpressing SKOV-3 clones to drug treatment (viability, words): clones HE4C1, -C3, -C7, compared to parental SKOV-3
Description: An HE4 overexpressing vector for stable expression was engineered by inserting a coding sequence of human WAP four-disulfide core domain 2 (WFDC2) cDNA into a multiple cloning site of an eukaryotic expression vector, pCMV6-entry (Origene, Rockville, Md.). Transfection of the constructs in SKOV-3 cells was performed using Lipofectamine 2000 (Invitrogen, Carlsbad, Calif.) according to the manufacturer's instructions. Stably transfected cells were selected by resistance to G-418 (500 μg/ml) (Research Products International, Mount Prospect, Ill.), applied 48 h after transfection and continued during cell culture. G-418 resistant cells were resuspended (density 5 cells/ml) in complete medium/G-418 and seeded as 200 μl/well on a 96 well cell culture plate (Corning, New York, N.Y.). Cells growing from single colonies (cloned; stable transfection) were isolated.
(§2) Cell growth and viability of cell lines (complete medium, 24 h incubation) was determined by the CellTiter 96® AQueous One Solution Assay (Promega Corp, Madison, Wis.) following the manufacturer's recommendations with modifications (Lange T S et al., 2008 PLOS One, 3(5):e2303). Experiments are expressed as the mean of triplicate determinations (X±SD) of a representative experiment in OD (cell growth) or % of absorbance by drug-treated versus untreated cells [=100%] (cell viability). Cisplatin (CDDP), paclitaxel, doxorubicin and camptothecin (CPT) were purchased from (Sigma Aldrich, St. Louis, Mo.).
(§3) To analyze the potential biological relevance of elevated HE4 production for ovarian cancer cells the efficacy of commonly used anticancer drugs was examined in a viability assay (FIG. 5). SKOV-3 clones or parental cells were treated with cisplatin, paclitaxel, doxorubicin, or camptothecin for 24 h in various concentrations as indicated and the cytotoxicity evaluated.

[4] = system: SKOV-3 cells; assay: MTS cell viability assay, parental/wild-type SKOV-3 cells; format: cell-based, Human; details: 24 h
Description: as §2, §3

[5] = system: HE4 mRNA; assay: HE4 mRNA expression in SKOV-3 cells by RT-PCR; format: cell-based, Human; details: stimulation in serum free DMEM (TNF 10 nM, Insulin 100 nM, EGF 10 nM, IL-6 10 nM)
Description: as §1
Total RNA isolation from cells was carried out using TRIzol and Reverse transcription on 3 μg RNA using SuperScript III transcriptase according to the manufacturers protocol (Invitrogen, Carlsbad, Calif.) followed by 30 cycles of PCR using the following primer pairs: HE4 sense, 5′-AGG AGC AGA GAA GAC TGG-3′ (SEQ ID NO: 27); HE4 antisense, 5′-TTA TCA TTG GGC AGA GAG-3′ (SEQ ID NO: 28); GAPDH sense, 5′-AAT CCC ATC ACC ATC TTC C-3′ (SEQ ID NO: 29); GAPDH antisense, 5′-GTCCTTCCACGATACCAAAG-3′ (SEQ ID NO: 30). Cycle conditions: 94° C./1 min; 55° C./2 min, 72° C./2 min. PCR products were separated on 2% agarose gels containing 0.4 mg/ml of ethidium bromide.

5′ A*C*A*C*C*T*T*C*C*C*A*C*A*G*C*C*A*T*T 3′ (DNA ACACCTTCCCACAGCCATT; DNA, all phosphorothioate, methylation of C not given here) [SEQ ID NO:5]
effect on tumor progression / tumor burden [1]: showed tumor inhibitory activity

5′ A*C*A*C*C*T*T*C*C*C*A*C*A*G*C*C*A*T*T*G 3′ [SEQ ID NO:4]
toxicity in animals (body weight) [1]: did not cause any toxicity
effect on tumor progression / tumor burden [1]: strong reduction in tumor burden
effect on tumor progression / tumor burden ([1]; listed as HE4 antisense 2): suppressed the progression of ovarian tumor growth

5′ G*A*C*A*C*C*T*T*C*C*C*A*C*A*G*C*C*A*T 3′ (DNA GACACCTTCCCACAGCCAT; DNA, all phosphorothioate, methylation of C not given here) [SEQ ID NO:3]
effect on tumor progression / tumor burden [1]: showed tumor inhibitory activity

5′ G*A*C*A*C*C*T*T*C*C*C*A*C*A*G*C*C*A*T*T 3′ (DNA dG*dA*dC*dA*dC*dC*dT*dT*dC*dC*dC*dA*dC*dA*dG*dC*dC*dA*dT*dT; antisense) [SEQ ID NO:1]
effect on tumor progression / tumor burden [1]: showed tumor inhibitory activity

5′ G*A*C*A*C*C*T*T*C*C*C*A*C*A*G*C*C*A*T*T*G 3′ [SEQ ID NO:2]
toxicity in animals (body weight) [1]: did not cause any toxicity
effect on tumor progression / tumor burden ([1]; listed as HE4 antisense 1): suppressed the progression of ovarian tumor growth

Cc1c2oc3c(C)ccc(C(=O)N[C@@H]4C(=O)N[C@H](C(C)C)C(=O)N5CCC[C@H]5C(=O)N(C)CC(=O)N(C)[C@@H](C(C)C)C(=O)O[C@@H]4C)c3nc-2c(C(=O)N[C@@H]2C(=O)N[C@H](C(C)C)C(=O)N3CCC[C@H]3C(=O)N(C)CC(=O)N(C)[C@@H](C(C)C)C(=O)O[C@@H]2C)c(N)c1=O [Actinomycin-D] (I: T[dV]P[Sar][NMeV] / II: T[dV]P[Sar][NMeV]; ester I:1-I:C, II:1-II:C; linker I:N-II:N via Actinocin(9to1))
effect on HE4 levels in SKOV-3 [2]: suppressed HE4 levels

C=C1/C(=C\C=C2/CCC[C@]3(C)[C@@H]([C@H](C)CCCC(C)(C)O)CC[C@@H]23)C[C@@H](O)C[C@@H]1O [Calcitriol]
effect on HE4 levels in SKOV-3 [2]: upregulated HE4 expression

COc1cc2ncnc(Nc3ccc(F)c(Cl)c3)c2cc1OCCCN1CCOCC1 [Iressa]
effect on HE4 levels in SKOV-3 [2]: suppressed HE4 levels

CC[C@@]1(O)C(=O)OCc2c1cc1n(c2=O)Cc2cc3ccccc3nc2-1 [camptothecin]
maximum difference in viability between wild-type cells and HE4C1, -3, -7 ([3]; camptothecin, at 1.2 μM): ≤ 21%

COc1cccc2c1C(=O)c1c(O)c3c(c(O)c1C2=O)C[C@@](O)(C(=O)CO)C[C@@H]3O[C@H]1C[C@H](N)[C@H](O)[C@H](C)O1 [doxorubicin]
viability at 20 µM ([4]; Homo sapiens, SK-OV-3, wild-type SKOV-3, 20 μM doxorubicin, untreated = 100%): 58%
viability at 20 µM ([3]; HE4C1): 70%
viability at 20 µM ([3]; HE4C3): 84%
viability at 20 µM ([3]; HE4C7): 91%

CC(=O)O[C@H]1C(=O)[C@@]2(C)[C@H]([C@H](OC(=O)c3ccccc3)[C@]3(O)C[C@H](OC(=O)[C@H](O)[C@@H](NC(=O)c4ccccc4)c4ccccc4)C(C)=C1C3(C)C)[C@]1(OC(C)=O)CO[C@@H]1C[C@@H]2O [paclitaxel]
effect on viability of wild-type SKOV-3 cells ([4]; paclitaxel 6.25, 12.5 or 25 nM, cisplatin 40 or 80 μM): reduced the viability of wild-type SKOV-3 cells drastically
effect on HE4 levels in SKOV-3 [2]: suppressed HE4 levels
response of HE4 overexpressing SKOV-3 clones to drug treatment (viability, words) [3]: did not display a significantly altered viability
response of HE4 overexpressing SKOV-3 clones to drug treatment (viability, words) ([3]; listed as Paclitaxel): significantly reduced response

EGF: epidermal growth factor (NSDSECPLSHDGYCLHDGVCMYIEALDKYACNCVVGYIGERCQYRDLKWWELR; UniProt P01133 971-1023, looked up)
effect on HE4 levels in media or cell-lysate of SKOV-3 cells [2]: elevate HE4 levels
effect on mRNA expression of HE4 in SKOV-3 cells [5]: did not affect mRNA expression of HE4

IL-6: cytokine
effect on HE4 levels in media or cell-lysate of SKOV-3 cells [2]: suppresses the HE4 levels
effect on mRNA expression of HE4 in SKOV-3 cells [5]: did not affect mRNA expression of HE4

Insulin: growth factor
effect on HE4 levels in media or cell-lysate of SKOV-3 cells [2]: elevate HE4 levels
effect on mRNA expression of HE4 in SKOV-3 cells [5]: did not affect mRNA expression of HE4

TNF-a
effect on HE4 levels in media or cell-lysate of SKOV-3 cells [2]: does not alter HE4 levels
effect on mRNA expression of HE4 in SKOV-3 cells [5]: did not affect mRNA expression of HE4

Tunicamycin
effect on HE4 levels in SKOV-3 [2]: suppressed HE4 levels
